Data: patent publication US20250034135A1, “ANTI-APOPTOTIC PROTEIN BCL-2 INHIBITOR, PHARMACEUTICAL COMPOSITION AND USES THEREOF” (HANGZHOU HEALZEN THERAPEUTICS CO., LTD., priority 2021, published 2025)
Where two headings read alike, the source gives them in different places.

Columns and labels:
BCL2 = BCL2 (Homo sapiens (Human), UniProt P10415); assay: Molecular level activity test of anti-apoptotic protein BCL2 (HTRF, binding to Bim peptide); conditions: HTRF, binding of BCL2 to Bim peptide; read-out: BCL2 nM (inhibitory activity, IC50)
Summary of the method: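 Signal comes from proximity of anti-His-labelled BCL2 and streptavidin-XL665-bound biotin-BIM peptide. Test compounds, added in 2% DMSO, were preincubated with protein and peptide for one hour; detection reagents then incubated four hours at room temperature before reading.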

BCL2 (G101V) = BCL2 (G101V) (Homo sapiens (Human), UniProt P10415, G101V); assay: Molecular level activity test of anti-apoptotic protein BCL2 (G101V) (HTRF, binding to Bim peptide); conditions: inhibition of BCL2 (G101V) binding to Bim peptide, read-out: BCL-2 (G101V)
Summary of the method: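 His-tagged recombinant BCL2 (G101V) incubated 1 h with biotin-BIM peptide and compound (2% DMSO), then anti-His and streptavidin-XL665 detection reagents added for 4 h at room temperature. HTRF signal reflects compound effect on BCL2–BIM binding.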

BCL2 (D103Y) = BCL2 (D103Y) (Homo sapiens (Human), UniProt P10415, D103Y); assay: Molecular level activity test of BCL2 (D103Y) (HTRF, binding to Bim peptide); conditions: read-out: BCL-2 (D103Y) (nM) (inhibitory activity, IC50)
Summary of the method: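 His-tagged recombinant protein mixed with biotinylated BIM peptide and compound (2% DMSO), reacted 1 h. Anti-His and streptavidin-XL665 detection reagents then added and incubated 4 h at room temperature before HTRF read-out of binding inhibition.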

RS4; 11 cells = assay: Tumor proliferation inhibitory activity test (MTS) on RS4; 11; type: cell-based; conditions: Homo sapiens, RS4-11, 72 h, 3 days incubation
Summary of the method: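 RS4;11 cells were exposed to serially diluted compound (0.2% DMSO control) for 3 days at 37 °C/5% CO2, followed by MTS for 3–4 h. Read-out was OD490−OD690, and inhibition was calculated relative to the DMSO and blank wells.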

BCL-XL = BCL-XL (Homo sapiens (Human), UniProt Q07817); assay: BCL-XL enzyme molecular level activity test (HTRF, binding to BIM peptide); conditions: binding of BCL-XL to BIM peptide, read-out: BCL-XL inhibitory activity (IC50)
Summary of the method: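 HTRF binding assay: His-tagged recombinant BCL-XL with biotin-BIM peptide and compound (2% DMSO), 1 h. Anti-His and streptavidin-XL665 detection reagents added, 4 h at room temperature. Excitation 320 nm; 665/615 nm ratio reflects binding, with no-protein background and no-compound full-binding controls.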

human platelets = assay: Platelet viability test (CTG); type: cell-based; conditions: CTG after 24 h
Experimental: After 10 mL of platelet-rich plasma was added to 30 mL of ACD-A solution and uniformly mixed, centrifugation was performed at 1200 g, and the supernatant was discarded; 10 mL of ACD-A solution was added, resuspended, uniformly mixed, and centrifuged at 1200 g for 10 min, and the supernatant was discarded. 5 mL of HEPES-Tyrode's buffer containing 1 μM PGE1 and 0.2 U/mL apyrase was added, slightly inverted, and then centrifuged at 800 g for 5 min, and the supernatant was discarded. 10 mL of HEPES-Tyrode's buffer containing 1 μM PGE1 and 0.2 U/mL apyrase was added, resuspended, and centrifuged at 1000 g for 5 min, and the supernatant was discarded. 2 mL of HEPES-Tyrode's buffer containing 1 μM PGE1+10% FBS-resuspended platelets was added, 200 μL was taken into a centrifuge tube and diluted to 2 mL. Then it was diluted to 1, 0.8, 0.6, 0.4, 0.2, 0.1, 0.08, 0.06, 0.04, 0.02, 0.01 times, the volume was complemented to 100 μL, and 50 μL of CTG reagent was added to detect cell viability. The maximum valid dilution with a fluorescence value not exceeding […] was selected for dilution, 90 μL/well was connected to a 96-well cell plate for chemiluminescence detection. A compound was prepared with HEPES-Tyrode's buffer containing 1 μM of PGE1+10% FBS, and added to the cells, which was gently beaten evenly and detected for cell viability by adding 50 μL CTG after 24 h.

human CYP3A4 enzyme = human CYP3A4 enzyme (Homo sapiens (Human), UniProt P08684); assay: CYP3A4 enzyme inhibitory activity (Vivid CYP3A4 Green screening kit)
Experimental: The inhibitory activity of compounds on human CYP3A4 enzyme was detected using a VIVID™ CYP3A4 GREEN SCRNING KIT reagent kit. The Vivid™ CYP450 screening kit includes a Vivid™ substrate, Vivid™ fluorescence standard, reaction buffer, Vivid™ regeneration system, NADP+ and CYP450 BACULOSOMES™ Plus reagent. Operations were performed following the instructions, and a blank control group was set up without adding any compounds.
The IC50 value of the compounds inhibiting human CYP3A4 enzyme was calculated using Graphpad Prism 7.00 software through the formula Y=100/(1+10^((Log IC50−X)*HillSlope)).

[1] = read-out: CYP3A4 (IC50), Vivid CYP3A4 Green screening kit

Chain of BCL-XL (Q07817 whole entry): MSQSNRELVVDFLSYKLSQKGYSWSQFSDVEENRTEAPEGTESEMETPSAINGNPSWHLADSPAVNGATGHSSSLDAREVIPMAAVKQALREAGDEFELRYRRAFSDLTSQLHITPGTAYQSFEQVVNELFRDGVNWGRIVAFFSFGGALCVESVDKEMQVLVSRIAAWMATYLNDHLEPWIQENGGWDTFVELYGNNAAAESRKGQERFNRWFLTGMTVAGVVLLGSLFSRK
Chain of human CYP3A4 enzyme (P08684 whole entry): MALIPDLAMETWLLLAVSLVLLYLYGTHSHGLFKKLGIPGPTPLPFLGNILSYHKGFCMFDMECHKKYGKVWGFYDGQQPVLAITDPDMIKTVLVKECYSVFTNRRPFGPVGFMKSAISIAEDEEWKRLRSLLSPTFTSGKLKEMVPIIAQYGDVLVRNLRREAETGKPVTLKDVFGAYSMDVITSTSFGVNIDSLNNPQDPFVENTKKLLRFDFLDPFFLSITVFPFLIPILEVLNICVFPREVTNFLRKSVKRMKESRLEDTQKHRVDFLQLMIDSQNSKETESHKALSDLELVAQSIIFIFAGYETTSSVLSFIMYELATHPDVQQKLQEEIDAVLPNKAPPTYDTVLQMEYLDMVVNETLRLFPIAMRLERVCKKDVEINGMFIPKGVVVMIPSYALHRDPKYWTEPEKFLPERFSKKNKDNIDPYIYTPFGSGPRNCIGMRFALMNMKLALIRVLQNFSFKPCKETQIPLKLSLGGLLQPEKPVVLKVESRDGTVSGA

Structure (SMILES)	IC50 (BCL2) [nM]	IC50 (BCL2 (G101V)) [nM]	IC50 (BCL2 (D103Y)) [nM]	IC50 (RS4; 11 cells) [nM]	IC50 (BCL-XL; values in nM) [nM]	IC50 (human platelets) [nM]	IC50 (human CYP3A4 enzyme; [1]) [nM]	IC50 (BCL-XL; values given in μM) [nM]	IC50 (human CYP3A4 enzyme) [nM]
COc1ccc(CN2CCN(C3CC4(CCN(c5cc(Oc6cnc7[nH]ccc7c6)c(C(=O)NS(=O)(=O)c6ccc(NC[C@H]7COCCO7)c([N+](=O)[O-])c6)cc5F)CC4)C3)[C@H](c3ccccc3C(C)C)C2)cc1 [compound 241, N-((4-((((S)-1,4-dioxan-2-yl)methyl)amino)-3-nitrophenyl)sulfonyl)-2-((1H-pyrrolo[2,3-b]pyrid-5-yl)oxy)-5-fluoro-4-(2-((R)-2-(2-isopropylphenyl)-4-(4-methoxybenzyl)piperazin-1-yl)-7-azaspiro[3.5]non-7-yl)benzamide]	< 10	< 10	< 10	< 0.5	> 500	> 5000			
COc1ccc(CN2CCN(C3CC4(CCN(c5cc(Oc6cnc7[nH]ccc7c6)c(C(=O)NS(=O)(=O)c6ccc(NCC7(F)CCOCC7)c([N+](=O)[O-])c6)cc5F)CC4)C3)[C@H](c3ccccc3C(C)C)C2)cn1 [compound 242, (R)-2-((1H-pyrrolo[2,3-b]pyrid-5-yl)oxy)-5-fluoro-N-((4-(((4-fluorotetrahydro-2H-pyran-4-yl)methyl)amino)-3-nitrophenyl)sulfonyl)-4-(2-(2-(2-isopropylphenyl)-4-((6-methoxypyrid-3-yl)methyl)piperazin-1-yl)-7-azaspiro[3.5]non-7-yl)benzamide]	< 10	< 10	< 10	< 0.5	> 500	> 5000	> 20000		
COc1ccc(CN2CCN(C3CC4(CCN(c5cc(Oc6cnc7[nH]ccc7c6)c(C(=O)NS(=O)(=O)c6ccc(NCC7(F)CCOCC7)c([N+](=O)[O-])c6)cc5F)CC4)C3)[C@H](c3ccccc3C(C)C)C2)cc1OC [compound 197, (R)-2-((1H-pyrrolo[2,3-b]pyrid-5-yl)oxy)-4-(2-(4-(3,4-dimethoxybenzyl)-2-(2-isopropylphenyl)piperazin-1-yl)-7-azaspiro[3.5]non-7-yl)-5-fluoro-N-((4-(((4-fluorotetrahydro-2H-pyran-4-yl)methyl)amino)-3-nitrophenyl)sulfonyl)benzamide]	< 10	< 10	< 10	< 0.5		> 5000	> 20000	> 1000	
COc1cc(CN2CCN(C3CC4(CCN(c5cc(Oc6cnc7[nH]ccc7c6)c(C(=O)NS(=O)(=O)c6ccc(NCC7(F)CCOCC7)c([N+](=O)[O-])c6)cc5F)CC4)C3)[C@H](c3ccccc3C(C)C)C2)ccc1CN(C)C [compound 247, (R)-2-((1H-pyrrolo[2,3-b]pyrid-5-yl)oxy)-4-(2-(4-(4-((dimethylamino)methyl)-3-methoxybenzyl)-2-(2-isopropylphenyl)piperazin-1-yl)-7-azaspiro[3.5]non-7-yl)-5-fluoro-N-((4-(((4-fluorotetrahydro-2H-pyran-4-yl)methyl)amino)-3-nitrophenyl)sulfonyl)benzamide]	< 10	< 10	< 10	0.5 to 1	> 500	> 5000			
CC(C)c1ccccc1[C@@H]1CN(Cc2cnn(C)c2)CCN1C1CC2(CCN(c3cc(Oc4cnc5[nH]ccc5c4)c(C(=O)NS(=O)(=O)c4ccc(NCC5(F)CCOCC5)c([N+](=O)[O-])c4)cc3F)CC2)C1 [compound 209, (R)-2-((1H-pyrrolo[2,3-b]pyrid-5-yl)oxy)-5-fluoro-N-((4-(((4-fluorotetrahydro-2H-pyran-4-yl)methyl)amino)-3-nitrophenyl)sulfonyl)-4-(2-(2-(2-isopropylphenyl)-4-((1-methyl-1H-pyrazole-4-yl)methyl)piperazin-1-yl)-7-azaspiro[3.5]non-7-yl)benzamide]	< 10	< 10	< 10	< 0.5		> 5000	> 20000	1900	
COc1ccc(CN2CCN(C3CC4(CCN(c5cc(Oc6cnc7[nH]cc(F)c7c6)c(C(=O)NS(=O)(=O)c6ccc(NCC7(F)CCOCC7)c([N+](=O)[O-])c6)cc5F)CC4)C3)[C@H](c3ccccc3C(C)C)C2)cc1 [compound 252, (R)-5-fluoro-2-((3-fluoro-1H-pyrrolo[2,3-b]pyrid-5-yl)oxy)-N-((4-(((4-fluorotetrahydro-2H-pyran-4-yl)methyl)amino)-3-nitrophenyl)sulfonyl)-4-(2-(2-(2-isopropylphenyl)-4-(4-methoxybenzyl)piperazin-1-yl)-7-azaspiro[3.5]non-7-yl)benzamide]	< 10	< 10	< 10	0.5 to 1	> 500	> 5000			
COc1ccc(CN2CCN(C3CC4(CCN(c5cc(Oc6cnc7[nH]ccc7c6)c(C(=O)NS(=O)(=O)c6ccc(NCC7CCOCC7)c([N+](=O)[O-])c6)cc5F)CC4)C3)[C@H](c3ccccc3C(C)C)C2)cc1 [compound 239, (R)-2-((1H-pyrrolo[2,3-b]pyrid-5-yl)oxy)-5-fluoro-4-(2-(2-(2-isopropylphenyl)-4-(4-methoxybenzyl)piperazin-1-yl)-7-azaspiro[3.5]non-7-yl)-N-((3-nitro-4-(((tetrahydro-2H-pyran-4-yl)methyl)amino)phenyl)sulfonyl)benzamide]	< 10	< 10		< 0.5	> 500	> 5000	> 20000		
CC(C)c1ccccc1[C@@H]1CN(Cc2ccc(F)c(F)c2)CCN1C1CC2(CCN(c3cc(Oc4cnc5[nH]ccc5c4)c(C(=O)NS(=O)(=O)c4ccc(NCC5(F)CCOCC5)c([N+](=O)[O-])c4)cc3F)CC2)C1 [compound 190, (R)-2-((1H-pyrrolo[2,3-b]pyrid-5-yl)oxy)-4-(2-(4-(3,4-difluorobenzyl)-2-(2-isopropylphenyl)piperazin-1-yl)-7-azaspiro[3.5]non-7-yl)-5-fluoro-N-((4-(((4-fluorotetrahydro-2H-pyran-4-yl)methyl)amino)-3-nitrophenyl)sulfonyl)benzamide]		< 10	< 10	< 0.5	> 500	> 5000			> 20000
